Laboratory results taken from article doi:10.1101/2023.11.24.568596v1 (biorxiv, 2023).
Blank lines part the entries; values can stand above or below the molecule they belong to.

Key:
Settings in all cases: binder
CASK = molecular target: T1, CASK (Homo sapiens, UniProt O14936)
T1 sequence (O14936 1-926): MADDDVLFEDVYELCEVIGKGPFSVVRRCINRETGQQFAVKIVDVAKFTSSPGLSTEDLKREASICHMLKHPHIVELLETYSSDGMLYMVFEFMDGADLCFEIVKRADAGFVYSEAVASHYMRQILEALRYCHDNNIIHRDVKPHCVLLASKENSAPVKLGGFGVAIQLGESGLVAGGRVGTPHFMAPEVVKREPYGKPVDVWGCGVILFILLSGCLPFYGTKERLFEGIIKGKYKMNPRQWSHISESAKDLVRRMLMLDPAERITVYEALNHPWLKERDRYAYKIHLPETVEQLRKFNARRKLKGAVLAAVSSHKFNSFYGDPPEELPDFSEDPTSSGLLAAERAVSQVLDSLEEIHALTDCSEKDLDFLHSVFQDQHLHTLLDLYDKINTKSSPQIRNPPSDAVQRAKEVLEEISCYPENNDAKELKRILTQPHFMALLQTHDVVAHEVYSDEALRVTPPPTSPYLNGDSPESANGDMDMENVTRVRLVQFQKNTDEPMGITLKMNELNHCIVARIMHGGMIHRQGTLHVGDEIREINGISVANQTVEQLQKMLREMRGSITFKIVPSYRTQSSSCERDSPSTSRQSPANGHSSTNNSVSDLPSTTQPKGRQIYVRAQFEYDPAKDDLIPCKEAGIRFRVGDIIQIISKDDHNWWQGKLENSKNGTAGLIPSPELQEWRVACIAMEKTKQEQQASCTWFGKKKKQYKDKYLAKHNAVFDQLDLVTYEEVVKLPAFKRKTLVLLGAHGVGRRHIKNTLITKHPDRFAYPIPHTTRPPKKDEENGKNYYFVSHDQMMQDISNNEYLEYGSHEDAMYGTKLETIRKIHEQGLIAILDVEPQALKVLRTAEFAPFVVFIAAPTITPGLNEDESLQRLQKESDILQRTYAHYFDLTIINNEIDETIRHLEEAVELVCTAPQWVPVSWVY

CK1d = CK1d (Homo sapiens, UniProt P48730)
Chain of CK1d (P48730 whole entry): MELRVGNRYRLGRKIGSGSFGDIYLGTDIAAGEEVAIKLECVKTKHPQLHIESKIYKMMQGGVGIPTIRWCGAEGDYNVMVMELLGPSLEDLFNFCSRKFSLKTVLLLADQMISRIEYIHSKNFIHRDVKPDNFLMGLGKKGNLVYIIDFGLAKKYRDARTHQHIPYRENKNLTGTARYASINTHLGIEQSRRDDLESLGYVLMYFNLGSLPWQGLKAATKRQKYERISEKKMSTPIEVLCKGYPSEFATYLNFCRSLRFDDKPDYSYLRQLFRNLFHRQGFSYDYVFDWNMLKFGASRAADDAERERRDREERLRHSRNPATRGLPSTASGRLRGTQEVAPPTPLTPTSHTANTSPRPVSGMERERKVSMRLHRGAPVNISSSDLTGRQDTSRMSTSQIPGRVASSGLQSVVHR

DYRK1A = DYRK1A (Homo sapiens, UniProt Q13627)
DYRK2 = molecular target: T2, DYRK2 (Homo sapiens, UniProt Q92630)
T2 sequence (Q92630 1-601): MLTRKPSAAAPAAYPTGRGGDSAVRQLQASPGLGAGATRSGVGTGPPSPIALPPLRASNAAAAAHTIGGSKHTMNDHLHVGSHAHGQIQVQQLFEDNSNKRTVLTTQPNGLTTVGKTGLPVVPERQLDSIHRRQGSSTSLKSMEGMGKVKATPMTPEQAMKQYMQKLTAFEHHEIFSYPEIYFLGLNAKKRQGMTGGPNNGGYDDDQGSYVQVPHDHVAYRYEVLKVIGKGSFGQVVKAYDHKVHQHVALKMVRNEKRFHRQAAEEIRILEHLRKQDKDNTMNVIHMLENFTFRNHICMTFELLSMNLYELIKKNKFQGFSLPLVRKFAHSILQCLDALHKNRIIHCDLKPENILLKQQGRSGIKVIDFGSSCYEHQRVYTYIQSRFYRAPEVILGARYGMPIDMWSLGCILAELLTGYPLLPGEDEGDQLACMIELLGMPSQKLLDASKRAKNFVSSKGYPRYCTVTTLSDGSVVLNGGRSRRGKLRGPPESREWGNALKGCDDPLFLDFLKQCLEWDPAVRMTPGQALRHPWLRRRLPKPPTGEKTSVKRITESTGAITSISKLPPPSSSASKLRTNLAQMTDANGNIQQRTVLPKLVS

Erk3 = Erk3 (Homo sapiens, UniProt Q16659)
Chain of Erk3 (Q16659 whole entry): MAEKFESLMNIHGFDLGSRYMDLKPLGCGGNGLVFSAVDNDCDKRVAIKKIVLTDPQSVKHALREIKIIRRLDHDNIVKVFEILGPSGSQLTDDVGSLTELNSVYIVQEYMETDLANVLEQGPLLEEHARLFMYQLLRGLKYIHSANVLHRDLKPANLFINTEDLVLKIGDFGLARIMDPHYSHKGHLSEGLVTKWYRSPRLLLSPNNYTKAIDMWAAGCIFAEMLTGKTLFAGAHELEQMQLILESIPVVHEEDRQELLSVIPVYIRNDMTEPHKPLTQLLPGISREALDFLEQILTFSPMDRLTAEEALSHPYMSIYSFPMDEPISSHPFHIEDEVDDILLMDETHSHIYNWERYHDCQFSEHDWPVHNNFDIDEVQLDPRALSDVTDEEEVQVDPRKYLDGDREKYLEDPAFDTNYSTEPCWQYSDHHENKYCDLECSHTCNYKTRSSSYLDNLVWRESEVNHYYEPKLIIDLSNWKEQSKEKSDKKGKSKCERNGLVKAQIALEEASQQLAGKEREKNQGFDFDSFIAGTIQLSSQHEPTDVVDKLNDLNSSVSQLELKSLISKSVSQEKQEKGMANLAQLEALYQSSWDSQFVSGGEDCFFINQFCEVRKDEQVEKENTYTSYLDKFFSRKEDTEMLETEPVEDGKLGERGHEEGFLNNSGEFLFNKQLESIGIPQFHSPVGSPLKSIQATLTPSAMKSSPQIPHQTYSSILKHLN

GPRK5 = GPRK5 (Homo sapiens, UniProt P34947)
Chain of GPRK5 (P34947 whole entry): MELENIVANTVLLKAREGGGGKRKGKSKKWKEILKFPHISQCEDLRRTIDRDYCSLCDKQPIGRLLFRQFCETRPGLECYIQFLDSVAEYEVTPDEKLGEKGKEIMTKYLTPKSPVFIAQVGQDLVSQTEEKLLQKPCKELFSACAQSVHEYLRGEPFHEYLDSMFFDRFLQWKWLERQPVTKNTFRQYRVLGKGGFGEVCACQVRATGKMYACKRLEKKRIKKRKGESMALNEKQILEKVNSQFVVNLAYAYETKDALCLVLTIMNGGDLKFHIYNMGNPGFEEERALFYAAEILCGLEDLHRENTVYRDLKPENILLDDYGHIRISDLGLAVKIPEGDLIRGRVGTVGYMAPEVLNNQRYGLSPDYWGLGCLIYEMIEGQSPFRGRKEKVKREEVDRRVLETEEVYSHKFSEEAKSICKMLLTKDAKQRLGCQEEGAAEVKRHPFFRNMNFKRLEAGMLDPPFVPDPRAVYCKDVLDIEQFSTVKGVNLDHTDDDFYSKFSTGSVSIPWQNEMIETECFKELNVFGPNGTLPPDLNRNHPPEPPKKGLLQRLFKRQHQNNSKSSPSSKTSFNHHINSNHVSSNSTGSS

MAP2K7 = molecular target: T3, MAP2K7 (Homo sapiens, UniProt O14733)
T3 sequence (O14733 1-419): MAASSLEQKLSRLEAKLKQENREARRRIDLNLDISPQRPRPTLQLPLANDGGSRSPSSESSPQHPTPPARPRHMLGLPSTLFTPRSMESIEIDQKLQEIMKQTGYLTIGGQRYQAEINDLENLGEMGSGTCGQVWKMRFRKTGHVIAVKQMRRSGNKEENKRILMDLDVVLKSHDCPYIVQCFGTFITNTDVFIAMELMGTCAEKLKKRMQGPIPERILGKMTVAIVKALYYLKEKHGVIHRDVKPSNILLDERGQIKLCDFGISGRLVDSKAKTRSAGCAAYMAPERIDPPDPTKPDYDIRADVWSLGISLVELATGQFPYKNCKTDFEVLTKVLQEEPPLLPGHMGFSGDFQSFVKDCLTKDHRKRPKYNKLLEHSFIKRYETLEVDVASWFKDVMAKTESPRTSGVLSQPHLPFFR

- dTm 33 (CASK): 0.2 °C
- dTm 33 (CK1d): 2.2 °C
- dTm 33 (DYRK1A): -0.6 °C
- dTm 33 (DYRK2): -1.0 °C
- dTm 33 (Erk3): 0.9 °C
- dTm 33 (GPRK5): -0.8 °C
- dTm 33 (MAP2K7): 7.7 °C
Structure (SMILES): Cc1cccc(-c2ccc(-c3cc4cnc(Nc5ccc(F)c(CO)c5)nc4n(CCCCN)c3=O)c(Cl)c2)n1 [compound 33, 8-(4-Aminobutyl)-6-(2-chloro-4-(6-methylpyridin-2-yl)phenyl)-2-((4-fluoro-3-(hydroxymethyl)phenyl)amino)pyrido[2,3-d]pyrimidin-7(8H)-one]

- dTm 34 (CASK): -0.2 °C
- dTm 34 (CK1d): 1.3 °C
- dTm 34 (DYRK1A): -1.0 °C
- dTm 34 (DYRK2): 0.0 °C
- dTm 34 (Erk3): 0.7 °C
- dTm 34 (GPRK5): -0.7 °C
- dTm 34 (MAP2K7): 1.3 °C
Structure (SMILES): COc1ccc(O)c(Nc2ncc3cc(-c4ccc(-c5cccc(C)n5)cc4Cl)c(=O)n(CCCCN)c3n2)c1 [compound 34, 8-(4-Aminobutyl)-6-(2-chloro-4-(6-methylpyridin-2-yl)phenyl)-2-((2-hydroxy-5-methoxy-phenyl)amino)pyrido[2,3-d]pyrimidin-7(8H)-one]

- dTm 35 (CASK): 0.0 °C
- dTm 35 (CK1d): 1.8 °C
- dTm 35 (DYRK1A): -2.3 °C
- dTm 35 (DYRK2): -0.6 °C
- dTm 35 (Erk3): 0.6 °C
- dTm 35 (GPRK5): -2.1 °C
- dTm 35 (MAP2K7): 2.0 °C
Structure (SMILES): COc1cc(N2CCOCC2)ccc1Nc1ncc2cc(-c3ccc(-c4cccc(C)n4)cc3Cl)c(=O)n(CCCCN)c2n1 [compound 35, 8-(4-Aminobutyl)-6-(2-chloro-4-(6-methylpyridin-2-yl)phenyl)-2-((2-methoxy-4-morpholino-phenyl)amino)pyrido[2,3-d]pyrimidin-7(8H)-one]

- dTm 36 (CASK): -0.4 °C
- dTm 36 (CK1d): 1.1 °C
- dTm 36 (DYRK1A): -0.8 °C
- dTm 36 (DYRK2): -0.4 °C
- dTm 36 (Erk3): 0.5 °C
- dTm 36 (GPRK5): -1.3 °C
- dTm 36 (MAP2K7): 0.0 °C
Structure (SMILES): COc1cc(N2CCN(C)CC2)ccc1Nc1ncc2cc(-c3ccc(-c4cccc(C)n4)cc3Cl)c(=O)n(CCCCN)c2n1 [compound 36, 8-(4-Aminobutyl)-6-(2-chloro-4-(6-methylpyridin-2-yl)phenyl)-2-((2-methoxy-4-(4-methylpiperazin-1-yl)phenyl)amino)pyrido[2,3-d]pyrimidin-7(8H)-one]
